The source of these data is patent US7947720B2, “3,4-di-substituted cyclobutene-1,2-diones as CXC-chemokine receptor ligands” (Schering Corporation, priority 2001, dated 2011).

pKi: −log10 of the molar value.

In this assay the target is T1, hCXCR2-CHO overexpressing membranes (Homo sapiens, UniProt P25025).
T1 construct: purchased Biosignal; host or cells: CHO cells (membranes)
T1 sequence (P25025 1-360): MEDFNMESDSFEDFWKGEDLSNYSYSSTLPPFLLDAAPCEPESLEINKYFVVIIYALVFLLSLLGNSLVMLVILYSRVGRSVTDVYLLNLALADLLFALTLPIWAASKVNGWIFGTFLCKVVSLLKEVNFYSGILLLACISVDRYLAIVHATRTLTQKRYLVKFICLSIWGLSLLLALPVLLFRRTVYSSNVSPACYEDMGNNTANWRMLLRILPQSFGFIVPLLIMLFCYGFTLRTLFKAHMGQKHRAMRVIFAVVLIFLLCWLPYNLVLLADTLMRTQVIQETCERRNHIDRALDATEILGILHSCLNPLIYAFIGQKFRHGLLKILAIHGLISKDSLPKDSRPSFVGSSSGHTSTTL
Briefly: CXCR2 SPA Assay. It counts as binding. As to conditions: [125I]-IL-8 0.1 nM.

Procedure: For each well of a 96 well plate, a reaction mixture of 4 μg hCXCR2-CHO overexpressing membranes (Biosignal) and 200 μg/well WGA-SPA beads (Amersham) in 100 μl was prepared in CXCR2 assay buffer (25 mM HEPES, pH 7.4, 2 mM CaCl2, 1 mM MgCl2). A 0.4 nM stock of ligand, [125I]-IL-8 (NEN), was prepared in the CXCR2 assay buffer. 20× stock solutions of test compounds were prepared in DMSO (Sigma). A 6× stock solution of GRO-α (R&D) was prepared in CXCR2 assay buffer. The above solutions were added to a 96-well assay plate (PerkinElmer or Corning) as follows: 10 μl test compound or DMSO, 40 ul CXCR2 assay buffer or GRO-α stock, 100 μl of reaction mixture, 50 μl of ligand stock (Final [Ligand]=0.1 nM). When 40× stock solutions of test compounds in DMSO were prepared, then the above protocol was used except instead 5 μl test compound or DMSO and 45 μl CXCR2 assay buffer were used. The assay plates were shaken for 5 minutes on a plate shaker, then incubated for 2-8 hours before cpm/well were determined in Microbeta Trilux counter (PerkinElmer). % Inhibition of total binding minus non-specific binding (250 nM Gro-α or 50 μM antagonist) was determined and IC50 values calculated.

For orientation: pKi means −log10 of the Ki, conventionally taken in molar units. Read a high pKi as a small Ki. Take `CC[C@@H](Nc1c(Nc2cccc(C(=O)N(C)C)c2O)c(=O)c1=O)c1cc(C(C)C)co1` [Example 360.106]: the pKi was 9.10.
